Experimental data as given in US9149038B2, “4-amino-6-(heterocyclic)picolinates and 6-amino-2-(heterocyclic)pyrimidine-4-carboxylates and their use as herbicides” (Dow AgroSciences LLC, priority 2013, dated 2015).
Like-named read-outs stand apart in the source and are kept apart here.

Experiments:
[1] = test system: Key Broadleaf Weed and Crop Species; assay: Post-Emergent Test II: postemergent herbicidal activity, visual rating after 14 d (Table 7); type: in vivo; conditions: post-emergence, 336 h; for pest or weed control at 35 g/ha: 35 g ai/ha; for pest or weed control at 70 g/ha: 70 g ai/ha; for pest or weed control at 140 g/ha: 140 g ai/ha
Procedure, shortened: (§1)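 Track-sprayed young seedlings (first/second true leaf) at 187 L/ha across a 2-fold rate series from the high rate down to 1/16×. Kept in greenhouse at 23-29° C day, subirrigated. Injury rated by eye after 14 d, 0 = no injury, 100 = complete kill.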

[2] = test system: Key Grass and Sedge Weeds as well as Grass Crops; assay: Post-Emergent Test II: postemergent herbicidal activity, visual rating after 14 d (Table 8); type: in vivo; conditions: post-emergence, 336 h; for pest or weed control at 35 g/ha: 35 g ai/ha; for pest or weed control at 70 g/ha: 70 g ai/ha; for pest or weed control at 140 g/ha: 140 g ai/ha
Procedure, shortened: as §1

[3] = lambsquarters (Chenopodium album), read-out: Visual Growth Reduction (%) 14 Days After Application CHEAL
[4] = oilseed rape, canola (Brassica napus), read-out: Visual Growth Reduction (%) 14 Days After Application BRSNN
[5] = redroot pigweed (Amaranthus retroflexus), read-out: Visual Growth Reduction (%) 14 Days After Application AMARE
[6] = sunflower (Helianthus annuus), read-out: Visual Growth Reduction (%) 14 Days After Application HELAN
[7] = velvetleaf (Abutilon theophrasti), read-out: Visual Growth Reduction (%) 14 Days After Application ABUTH
[8] = wild poinsettia (Euphorbia heterophylla), read-out: Visual Growth Reduction (%) 14 Days After Application EPHHL
[9] = barnyardgrass (Echinochloa crus-galli), read-out: Visual Growth Reduction (%) 14 Days After Application ECHCG
[10] = giant foxtail (Setaria faberi), read-out: Visual Growth Reduction (%) 14 Days After Application SETFA
[11] = maize, corn (Zea mays), read-out: Visual Growth Reduction (%) 14 Days After Application ZEAMX
[12] = rice (Oryza sativa), read-out: Visual Growth Reduction (%) 14 Days After Application ORYSA
[13] = wheat, spring (Triticum aestivum), read-out: Visual Growth Reduction (%) 14 Days After Application TRZAS
[14] = yellow nutsedge (Cyperus esculentus), read-out: Visual Growth Reduction (%) 14 Days After Application CYPES

Compound	pest or weed control at 35 g/ha [1, 3] [%]	pest or weed control at 70 g/ha [1, 3] [%]	pest or weed control at 140 g/ha [1, 3] [%]	pest or weed control at 35 g/ha [1, 4] [%]	pest or weed control at 70 g/ha [1, 4] [%]	pest or weed control at 140 g/ha [1, 4] [%]	pest or weed control at 35 g/ha [1, 5] [%]	pest or weed control at 70 g/ha [1, 5] [%]	pest or weed control at 140 g/ha [1, 5] [%]	pest or weed control at 35 g/ha [1, 6] [%]	pest or weed control at 70 g/ha [1, 6] [%]	pest or weed control at 140 g/ha [1, 6] [%]	pest or weed control at 35 g/ha [1, 7] [%]	pest or weed control at 70 g/ha [1, 7] [%]	pest or weed control at 140 g/ha [1, 7] [%]	pest or weed control at 35 g/ha [1, 8] [%]	pest or weed control at 70 g/ha [1, 8] [%]	pest or weed control at 140 g/ha [1, 8] [%]	pest or weed control at 35 g/ha [2, 9] [%]	pest or weed control at 70 g/ha [2, 9] [%]	also measured
COC(=O)c1nc(-c2c(F)cc3c(c2F)OCO3)cc(N)c1Cl [Compound 48]	95 to 100	95 to 100	95 to 100	95 to 100	95 to 100	95 to 100	85 to 94	95 to 100	95 to 100	0 to 29	45 to 59	60 to 74	85 to 94	95 to 100	95 to 100	95 to 100	95 to 100	95 to 100	75 to 84	75 to 84	pest or weed control at 140 g/ha [2, 9]: 85 to 94%; pest or weed control at 35 g/ha [2, 10]: 0 to 29%; pest or weed control at 70 g/ha [2, 10]: 60 to 74%; pest or weed control at 140 g/ha [2, 10]: 75 to 84%; pest or weed control at 35 g/ha [2, 11]: 30 to 44%; pest or weed control at 70 g/ha [2, 11]: 60 to 74%; pest or weed control at 140 g/ha [2, 11]: 75 to 84%; pest or weed control at 35 g/ha [2, 12]: 30 to 44%; pest or weed control at 70 g/ha [2, 12]: 45 to 59%; pest or weed control at 140 g/ha [2, 12]: 60 to 74%; pest or weed control at 35 g/ha [2, 13]: 0 to 29%; pest or weed control at 70 g/ha [2, 13]: 30 to 44%; pest or weed control at 140 g/ha [2, 13]: 60 to 74%; pest or weed control at 35 g/ha [2, 14]: 0 to 29%; pest or weed control at 70 g/ha [2, 14]: 0 to 29%; pest or weed control at 140 g/ha [2, 14]: 30 to 44%
COC(=O)c1nc(-c2ccc(F)c3c2OC(F)(F)O3)c(F)c(N)c1Cl [Compound 76]	85 to 94	85 to 94	95 to 100	60 to 74	75 to 84	85 to 94	95 to 100	95 to 100	95 to 100	85 to 94	85 to 94	85 to 94	60 to 74	75 to 84	85 to 94	0 to 29	0 to 29	0 to 29	0 to 29	0 to 29	pest or weed control at 140 g/ha [2, 9]: 0 to 29%; pest or weed control at 35 g/ha [2, 10]: 0 to 29%; pest or weed control at 70 g/ha [2, 10]: 0 to 29%; pest or weed control at 140 g/ha [2, 10]: 0 to 29%; pest or weed control at 35 g/ha [2, 11]: 0 to 29%; pest or weed control at 70 g/ha [2, 11]: 0 to 29%; pest or weed control at 140 g/ha [2, 11]: 0 to 29%; pest or weed control at 35 g/ha [2, 12]: 0 to 29%; pest or weed control at 70 g/ha [2, 12]: 0 to 29%; pest or weed control at 140 g/ha [2, 12]: 0 to 29%; pest or weed control at 35 g/ha [2, 13]: 30 to 44%; pest or weed control at 70 g/ha [2, 13]: 45 to 59%; pest or weed control at 140 g/ha [2, 13]: 60 to 74%; pest or weed control at 35 g/ha [2, 14]: 0 to 29%; pest or weed control at 70 g/ha [2, 14]: 30 to 44%; pest or weed control at 140 g/ha [2, 14]: 30 to 44%
